Here are results for nine compounds from US20100093726A1 (Giuseppe CAMPIANI, priority 2007, published 2010).

Usually IC50 stands for the concentration needed to halve the response being measured. For orientation: MIC means the lowest concentration that inhibits growth of the organism. Low readings indicate inhibition by little substance, high ones a need for much substance.

The subject of one series is P. falciparum K1. The experiment in a line: microbe, parasite or virus in culture. The series is classed as cell-based. Particulars: Plasmodium falciparum, K1, read-out: IC50 (nM) K1. The procedure: (§1) Some of the synthesized compounds were tested in vitro against two different strains of P. falciparum, namely 3D7, NF54 and D10 (CQ-S strain) and K1 and W2 (CQ-R strain).

In a further series the test system is P. falciparum NF54. As to the kind of experiment: In vitro antiplasmodial activity, P. falciparum NF54 (CQ-S clone). In kind it is cell-based. As to conditions: Plasmodium falciparum, NF54, read-out: IC50 (nM) NF54. The procedure:
as §1

The subject of the next series is P. falciparum D10. The experiment in a line: In vitro antiplasmodial activity, P. falciparum D10 (CQ-S clone). The series is classed as cell-based. As to conditions: Plasmodium falciparum, D10, read-out: IC50 (nM) D10. As for the experimental part:
as §1

In a further series the test system is P. falciparum W2. The experiment in a line: microbe, parasite or virus in culture. In kind it is cell-based. As to conditions: Plasmodium falciparum, W2, read-out: IC50 (nM) W2. As for the experimental part: as §1
A further series relates to P. falciparum 3D7. The experiment in a line: In vitro antiplasmodial activity, P. falciparum 3D7 (CQ-S clone). The series is classed as cell-based. Particulars: Plasmodium falciparum, 3D7, read-out: IC50 (nM) 3D7. The procedure: as §1
Series [1] relates to KB cell (human carcinoma of the nasopharynx cell line). The experiment in a line: Cytotoxicity on KB cells. The series is classed as cell-based.
Series [2] in a line: Cytotoxicity on NSO cells. The series is classed as cell-based. As to conditions: mouse, NSO cells (plasmocytoma murine cell line); read-out: TC50 (μM) NSO cells.
The nature of series [3]: Cytotoxicity on Daudi cells. The series is classed as cell-based. As to conditions: human, Daudi cells (human lymphoblastoid cell line); read-out: TC50 (μM) Daudi cells.
The nature of series [4]: Cytotoxicity on normal human lymphocytes. The series is classed as cell-based. Particulars: normal human lymphocytes PHA-stimulated; read-out: TC50 (μM) Normal human lymphocytes.
For the next series, the system named is P. Chabaudi AS. As to the kind of experiment: In vivo activity against P. chabaudi. Particulars: per os; for P. Chabaudi AS (% inhibition at 50 mg/Kg): single dose of 50 mg/Kg.
Another series deals with Candida albicans MGMI 1. The experiment in a line: Antifungal susceptibility (CLSI broth dilution), Candida albicans. As to conditions: CLSI protocol, clinical isolate. In kind it is cell-based. The source says: (§2) (1) National Committee for Clinical Laboratory Standards. (2002). Reference method for broth dilution antifungal susceptibility testing of yeasts—Second Edition: Approved Standard, M27-A2. NCCLS, Wayne, Pa.; and
(§3) (2) National Committee for Clinical Laboratory Standards. Reference method for broth dilution antifungal susceptibility testing of filamentous fungi: Approved Standard, M38-A. 2002; NCCLS, Wayne, Pa.
A general note: Dilution methods test growth across graded concentrations, often in twofold steps.

Another series has as its system Candida glabrata MGMI 2. As to the kind of experiment: Antifungal susceptibility (CLSI broth dilution), Candida glabrata. The series is classed as cell-based. Particulars: CLSI protocol, clinical isolate.
Source text: as §2, §3

For series [5], the system named is Candida krusei ATCC ® 6258. The experiment in a line: Antifungal susceptibility (CLSI broth dilution), Candida krusei. The series is classed as cell-based. Particulars: CLSI protocol, quality control strain.
Source text: as §2, §3

For series [6], the system named is Candida parapsilosis ATCC ® 22019. As to the kind of experiment: Antifungal susceptibility (CLSI broth dilution), Candida parapsilosis. The series is classed as cell-based. Particulars: CLSI protocol, quality control strain.
Source text: as §2, §3

In series [7] the test system is Cryptococcus neoformans MGMI 3. The experiment in a line: Antifungal susceptibility (CLSI broth dilution), Cryptococcus neoformans. The series is classed as cell-based. As to conditions: CLSI protocol, clinical isolate.
Source text: as §2, §3

In series [8] the test system is Aspergillus flavus ATCC ® 204304. As to the kind of experiment: Antifungal susceptibility (CLSI broth dilution), Aspergillus flavus. In kind it is cell-based. Particulars: CLSI protocol, reference strain.
Source text: as §2, §3

Series [9] relates to Aspergillus fumigatus MGMI 4. As to the kind of experiment: Antifungal susceptibility (CLSI broth dilution), Aspergillus fumigatus MGMI 4. In kind it is cell-based. Particulars: CLSI protocol, clinical isolate.
Source text: as §2, §3

The subject of series [10] is Aspergillus fumigatus MGMI 5. The experiment in a line: Antifungal susceptibility (CLSI broth dilution), Aspergillus fumigatus MGMI 5 (ITRA resistant). In kind it is cell-based. Particulars: for antifungal susceptibility value (MIC), Aspergillus fumigatus MGMI 5: CLSI protocol, clinical isolate, itraconazole resistant.
Source text: as §2, §3

The subject of series [11] is yeast and filamentous fungi. The experiment in a line: Antifungal activity, overall statement. In kind it is cell-based. As to conditions: yeast and filamentous fungi of Table 4.
The test system of series [12] is β-hematin formation (hemin). As to the kind of experiment: BHIA (β-hematin inhibitory activity) assay. In kind it is biochemical. Particulars: hemin in dimethyl sulfoxide-acetate buffer at pH 5.0, 37° C., 18 h.
Another series deals with P. Berghei ANKA. The experiment in a line: In vivo activity against P. berghei. As to conditions: doses up to 100 mg/Kg. As for the experimental part:
The experiment was performed at a single dose of 50 mg/Kg. ED50 was determined for 9a in P. berghei ANKA. All compounds were adminstered per os.

For `FC(F)(F)c1ccc2c(NC(c3cccc(Cl)c3)c3ccc(CN4CCOCC4)c(Cl)c3)ccnc2c1` (racemic) [Compound 9j], the half-inhibitory concentration (IC50) in the series on P. falciparum K1 amounted to 375 nM; in the series on P. falciparum NF54 it was 163 nM.

For the compound `Clc1ccc(C(Nc2ccnc3cc(Cl)ccc23)c2ccc(CN3CCCC3)cc2)cc1` (racemic) [Compound 9e], the IC50 turned out to be 45.8 nM in the series with P. falciparum D10; 9 nM in the series on P. falciparum K1; 72.1 nM in the series with P. falciparum W2; 3.7 nM with P. falciparum 3D7; 15 nM in the series on P. falciparum NF54. Also, the “TC50 (μM) KB cell” value in series [1] is 19.61 µM. Besides, the values for the CC50 in series [2], in series [3] and in series [4] were 8.65 µM, 8.65 µM and 17.3 µM, respectively. Moreover, the “P. Chabaudi AS (% inhibition at 50 mg/Kg)” value with P. Chabaudi AS turned out to be 99.5%. The “antifungal susceptibility value (MIC), Candida albicans MGMI 1” value in the series with Candida albicans MGMI 1 is given as greater than 32. Also, the “antifungal susceptibility value (MIC), Candida glabrata MGMI 2” value with Candida glabrata MGMI 2 is given as greater than 32. The “antifungal susceptibility value (MIC), Candida krusei ATCC 6258” value in [5] was greater than 32. Further, the “antifungal susceptibility value (MIC), Candida parapsilosis ATCC 22019” value in [6] is 16. The “antifungal susceptibility value (MIC), Cryptococcus neoformans MGMI 3” value in series [7] was 16. The “antifungal susceptibility value (MIC), Aspergillus flavus ATCC 204304” value in series [8] is listed as greater than 32. The “antifungal susceptibility value (MIC), Aspergillus fumigatus MGMI 4” value in [9] is greater than 32. Further, the “antifungal susceptibility value (MIC), Aspergillus fumigatus MGMI 5” value in [10] was greater than 32. Further, in [11], the “anti-fungal activity (in words)” value is “lack of anti-fungal activity”.

In the case of `FC(F)(F)c1ccc2c(NC(c3ccc(Cl)cc3)c3ccc(CN4CCCC4)cc3)ccnc2c1` (racemic) [Compound 9k], the IC50 with P. falciparum D10 is 61.5 nM; in the series with P. falciparum K1, 30 nM; in the series on P. falciparum W2 it was 90.5 nM; in the series with P. falciparum 3D7, 0.2 nM; with P. falciparum NF54 it was 20 nM. Also, in [1], the “TC50 (μM) KB cell” value was 5.49 µM. Also, the CC50 in series [2] came out at 12.1 µM; in [3] it was 14.1 µM; in [4] it was 24.2 µM. In addition, the “P. Chabaudi AS (% inhibition at 50 mg/Kg)” value in the series with P. Chabaudi AS amounted to 99.6%. Moreover, the “antifungal susceptibility value (MIC), Candida albicans MGMI 1” value with Candida albicans MGMI 1 is given as 16. Further, the “antifungal susceptibility value (MIC), Candida glabrata MGMI 2” value in the series with Candida glabrata MGMI 2 is recorded as greater than 32. For the same compound, the “antifungal susceptibility value (MIC), Candida krusei ATCC 6258” value in [5] is greater than 32. For the same compound, the “antifungal susceptibility value (MIC), Candida parapsilosis ATCC 22019” value in [6] is reported as 16. Besides, in [7], the “antifungal susceptibility value (MIC), Cryptococcus neoformans MGMI 3” value turned out to be 16. For the same compound, the “antifungal susceptibility value (MIC), Aspergillus flavus ATCC 204304” value in series [8] is greater than 32. In addition, the “antifungal susceptibility value (MIC), Aspergillus fumigatus MGMI 4” value in series [9] is on record as greater than 32. Besides, the “antifungal susceptibility value (MIC), Aspergillus fumigatus MGMI 5” value in series [10] is greater than 32. Also, the “anti-fungal activity (in words)” value in series [11] is given as “lack of anti-fungal activity”.

As to `CCC(C)n1ncn(-c2ccc(N3CCN(c4ccc(OCC5COC(Cn6cncn6)(c6ccc(Cl)cc6Cl)O5)cc4)CC3)cc2)c1=O` (centres unmarked) [ITRA, itraconazole, reference compound], in the series on Candida albicans MGMI 1, the antifungal susceptibility value (MIC), Candida albicans MGMI 1 worked out at 0.25 µg/mL. Further, in the series on Candida glabrata MGMI 2, the antifungal susceptibility value (MIC), Candida glabrata MGMI 2 was determined as 32 µg/mL. In series [5], this compound registered an antifungal susceptibility value (MIC), Candida krusei ATCC 6258 of 0.25 µg/mL. In addition, the antifungal susceptibility value (MIC), Candida parapsilosis ATCC 22019 in [6] is 0.125 µg/mL. For the same compound, the antifungal susceptibility value (MIC), Cryptococcus neoformans MGMI 3 in [7] turned out to be 0.25 µg/mL. Also, the antifungal susceptibility value (MIC), Aspergillus flavus ATCC 204304 in series [8] turned out to be 0.06 µg/mL. Moreover, in series [9], the antifungal susceptibility value (MIC), Aspergillus fumigatus MGMI 4 came to 0.06 µg/mL. The compound also came in with an MIC in series [10] (Aspergillus fumigatus, MGMI5, strain description in text, itraconazole resistant isolate) greater than 16 µg/mL. The antifungal susceptibility value (MIC), Aspergillus fumigatus MGMI 5 in [10] was greater than 32 µg/mL.

`CCN(CC)CCCC(C)Nc1ccnc2cc(Cl)ccc12` (centres unmarked) [CQ, chloroquine, reference compound]: the half-inhibitory concentration (IC50) with P. falciparum D10 was found to be 22 nM; with P. falciparum K1 it was 260 nM; with P. falciparum W2, 280 nM; in the series on P. falciparum 3D7, 10 nM; with P. falciparum NF54, 7 nM. Besides, the “TC50 (μM) KB cell” value in series [1] stood at 207.0 µM. Besides, the “P. Chabaudi AS (% inhibition)” value in the series with P. Chabaudi AS (10 mg/Kg) is reported as 100 (10 mg/Kg) %. Besides, the “β-hematin inhibitory activity IC50” value in series [12] was 0.91 ± 0.23 Molar equivalents of compound relative to hemin.

For the compound `Clc1cccc(C(Nc2ccnc3cc(Cl)ccc23)c2ccc(CN3CCOCC3)cc2)c1` (racemic) [Compound 9b], the IC50 in the series on P. falciparum D10 turned out to be 142 nM; in the series with P. falciparum K1, 259 nM; in the series on P. falciparum W2, 220 nM; in the series with P. falciparum NF54 it was 155 nM. Besides, the CC50 was determined as 44.7 µM in series [2], 43.9 µM in series [3] and 40.8 µM in series [4].

Take `Clc1ccc(C(Nc2ccnc3cc(Cl)ccc23)(c2ccccc2)c2ccc(CN3CCCC3)cc2)cc1` (racemic) [Compound 15a]: the 50% inhibitory concentration (IC50) in the series with P. falciparum K1 was found to be 22 nM; in the series with P. falciparum 3D7 it was 3 nM. Moreover, the CC50 amounted to 14.9 µM in series [2], 16.7 µM in [3] and 18.6 µM in series [4]. The “P. Chabaudi AS (% inhibition at 50 mg/Kg)” value in the series with P. Chabaudi AS was found to be 99.9%.

For the compound `CCN(CC)Cc1cc(Nc2ccnc3cc(Cl)ccc23)ccc1O` [Amodiaquine], the “β-hematin inhibitory activity IC50” value in series [12] is 0.79 ± 0.01 Molar equivalents of compound relative to hemin.

With `Clc1ccccc1C(c1ccccc1)(c1ccccc1)n1ccnc1` [CLT, clotrimazole, reference compound], in [1], the “TC50 (μM) KB cell” value was found to be 88.1 µM. Besides, the “P. Chabaudi AS (% inhibition at 50 mg/Kg)” value with P. Chabaudi AS came out at 6.0%. The “activity against P. berghei in vivo” value with P. Berghei ANKA was “not active”. The compound further gave an antifungal susceptibility value (MIC), Candida albicans MGMI 1 in the series with Candida albicans MGMI 1 of 0.03 µg/mL. The compound also yielded an antifungal susceptibility value (MIC), Candida parapsilosis ATCC 22019 in [6] of 2 µg/mL. Also, the antifungal susceptibility value (MIC), Cryptococcus neoformans MGMI 3 in series [7] turned out to be 2 µg/mL. Also, in series [8], the antifungal susceptibility value (MIC), Aspergillus flavus ATCC 204304 amounted to 4 µg/mL. In [9], this compound returned an antifungal susceptibility value (MIC), Aspergillus fumigatus MGMI 4 of 4 µg/mL. In addition, in series [10], the antifungal susceptibility value (MIC), Aspergillus fumigatus MGMI 5 turned out to be 4 µg/mL.
